Assay results as given in publication PMC10135569, “Does Enhanced Structural Maturity of hiPSC-Cardiomyocytes Better for the Detection of Drug-Induced Cardiotoxicity?” (Biomolecules, 2023).

Columns and labels:
[1] = test system: hiPSC-CMs (iCell2 Cardiomyocytes) 2D monolayers; experiment: Contractility measurements using video imaging (ContractilityTool / MUSCLEMOTION); assay type: cell-based, human; conditions: Homo sapiens, Cardiomyocyte, 0.5 h, 30 min, delta over DMSO 0.1%
How it was run: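 Monolayers on fibronectin or Matrix Plus coating, tested on days 5–6 in serum-free medium. Four concentrations, one per well, n = 8, with vehicle control.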

[2] = listed in Supplementary Table S1; no reference given; cited from earlier work
[3] = test system: hiPSC-CMs (iCell2 Cardiomyocytes) 2D monolayers; experiment: Membrane potential (action potential) recordings with FluoVolt voltage-sensitive dye on the CellOPTIQ platform; assay type: cell-based, human; conditions: for activity at 0.3 µM / activity at 1 µM / activity at 3 µM / activity at 10 µM: Homo sapiens, Cardiomyocyte, 0.5 h, 30 min, delta over DMSO 0.1%
How it was run: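 iCell2 hiPSC-CM monolayers (50,000 cells/well on fibronectin or Matrix Plus, days 5–6) were loaded with FluoVolt (1:1000, 20 min, 37 °C) and imaged at 37 °C with 470 nm excitation and 510–560 nm emission sampled at 10 kHz. Spontaneous action potentials were recorded for 10 s at baseline and 30 min after drug, with one of four concentrations per well (n = 8).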

[4] = FM monolayer, read-out: CtAmp (%DD)
[5] = FM monolayer, read-out: CtD50 (%DD)
[6] = MM monolayer, read-out: CtAmp (%DD)
[7] = MM monolayer, read-out: CtD50 (%DD)
[8] = FM monolayer, read-out: APD30 (%DD)
[9] = FM monolayer, read-out: APD90 (%DD)
[10] = FM monolayer, read-out: CL (%DD)
[11] = FM monolayer, read-out: Trise (%DD)
[12] = MM monolayer, read-out: APD30 (%DD)
[13] = MM monolayer, read-out: APD90 (%DD)
[14] = MM monolayer, read-out: CL (%DD)
[15] = MM monolayer, read-out: Trise (%DD)

Work on `Cc1[nH]c(=O)c(C#N)cc1-c1ccncc1` [Milrinone] yielded an activity at 0.3 µM [1, 4] of 103 ± 10.9%, an activity at 0.3 µM [1, 5] of 101 ± 1.7% and an activity at 1 µM [1, 4] of 116 ± 13.2%. For the same compound, the activity at 1 µM [1, 5] was 104 ± 2.4%, the activity at 3 µM [1, 4] was 100 ± 8.4% and the activity at 3 µM [1, 5] was 103 ± 1.7%. The activity at 10 µM [1, 4] was 81 ± 5.7%, the activity at 10 µM [1, 5] was 101 ± 1.7% and the activity at 0.3 µM [1, 6] was 131 ± 17.5%. For the same compound, the activity at 0.3 µM [1, 7] was 100 ± 1%, the activity at 1 µM [1, 6] was 115 ± 6.3% and the activity at 1 µM [1, 7] was 105 ± 1.8%. It also gave an activity at 3 µM [1, 6] of 76 ± 9.1%, an activity at 3 µM [1, 7] of 104 ± 1.5% and an activity at 10 µM [1, 6] of 129 ± 28.5%. For the same compound, the activity at 10 µM [1, 7] was 100 ± 1.4%, the “Free Cmax” value [2] was 2320 nM and the activity at 0.3 µM [3, 8] was 96 ± 1.8%. It also gave an activity at 0.3 µM [3, 9] of 96 ± 1.2%, an activity at 0.3 µM [3, 10] of 96 ± 1.6% and an activity at 0.3 µM [3, 11] of 80 ± 13.1%. For the same compound, the activity at 1 µM [3, 8] was 100 ± 1%, the activity at 1 µM [3, 9] was 96 ± 0.7% and the activity at 1 µM [3, 10] was 99 ± 0.8%. It also gave an activity at 1 µM [3, 11] of 74 ± 13.3%, an activity at 3 µM [3, 8] of 96 ± 1.9% and an activity at 3 µM [3, 9] of 94 ± 0.4%. It also gave an activity at 3 µM [3, 10] of 100 ± 0.7%, an activity at 3 µM [3, 11] of 68 ± 7.3% and an activity at 10 µM [3, 8] of 92 ± 2%. The activity at 10 µM [3, 9] was 95 ± 1.1%, the activity at 10 µM [3, 10] was 103 ± 0.6% and the activity at 10 µM [3, 11] was 106 ± 26.8%. It also gave an activity at 0.3 µM [3, 12] of 96 ± 1.6%, an activity at 0.3 µM [3, 13] of 97 ± 1.1% and an activity at 0.3 µM [3, 14] of 97 ± 0.2%. For the same compound, the activity at 0.3 µM [3, 15] was 112 ± 18.8%, the activity at 1 µM [3, 12] was 97 ± 0.7% and the activity at 1 µM [3, 13] was 99 ± 0.5%. It also gave an activity at 1 µM [3, 14] of 100 ± 0.6%, an activity at 1 µM [3, 15] of 125 ± 11.4% and an activity at 3 µM [3, 12] of 97 ± 1.4%. For the same compound, the activity at 3 µM [3, 13] was 102 ± 1.4%, the activity at 3 µM [3, 14] was 101 ± 0.5% and the activity at 3 µM [3, 15] was 132 ± 27.3%. For the same compound, the activity at 10 µM [3, 12] was 95 ± 1%, the activity at 10 µM [3, 13] was 100 ± 0.9% and the activity at 10 µM [3, 14] was 103 ± 0.2%. It also gave an activity at 10 µM [3, 15] of 102 ± 7%.

`CC(CCc1ccc(O)cc1)NCCc1ccc(O)c(O)c1` (stereo not shown) [Dobutamine] showed an activity at 1 µM [1, 4] of 93 ± 10.7%, an activity at 1 µM [1, 5] of 79 ± 1.5% and an activity at 3 µM [1, 4] of 99 ± 8.4%. It also gave an activity at 3 µM [1, 5] of 75 ± 2%, an activity at 10 µM [1, 4] of 82 ± 3.2% and an activity at 10 µM [1, 5] of 82 ± 2.2%. The activity at 1 µM [1, 6] was 101 ± 11.6%, the activity at 1 µM [1, 7] was 82 ± 1.1% and the activity at 3 µM [1, 6] was 89 ± 6.3%. It also gave an activity at 3 µM [1, 7] of 78 ± 1.2%, an activity at 10 µM [1, 6] of 98 ± 7.5% and an activity at 10 µM [1, 7] of 77 ± 1.3%. The “Free Cmax” value [2] was 80 nM, the activity at 1 µM [3, 8] was 84 ± 1.4% and the activity at 1 µM [3, 9] was 89 ± 0.9%. The activity at 1 µM [3, 10] was 76 ± 0.4%, the activity at 1 µM [3, 11] was 86 ± 5.3% and the activity at 3 µM [3, 8] was 77 ± 1.5%. It also gave an activity at 3 µM [3, 9] of 86 ± 0.8%, an activity at 3 µM [3, 10] of 77 ± 0.9% and an activity at 3 µM [3, 11] of 100 ± 18.9%. The activity at 10 µM [3, 8] was 90 ± 2%, the activity at 10 µM [3, 9] was 91 ± 1.9% and the activity at 10 µM [3, 10] was 81 ± 0.8%. It also gave an activity at 10 µM [3, 11] of 131 ± 21.5%, an activity at 1 µM [3, 12] of 89 ± 1.2% and an activity at 1 µM [3, 13] of 91 ± 1%. The activity at 1 µM [3, 14] was 75 ± 0.7%, the activity at 1 µM [3, 15] was 91 ± 7.1% and the activity at 3 µM [3, 12] was 85 ± 1.3%. The activity at 3 µM [3, 13] was 91 ± 0.9%, the activity at 3 µM [3, 14] was 76 ± 0.5% and the activity at 3 µM [3, 15] was 109 ± 14.1%. For the same compound, the activity at 10 µM [3, 12] was 86 ± 1.9%, the activity at 10 µM [3, 13] was 96 ± 0.9% and the activity at 10 µM [3, 14] was 81 ± 0.6%. For the same compound, the activity at 10 µM [3, 15] was 146 ± 13.9%, the “effect on cycle length (in words)” value ([3]; both FM and MM monolayers, concentration not given) was “concentration-dependent decrease” and the “electrical activity of the monolayers at higher concentrations” value ([3]; higher concentrations, FM and MM) was “electrically quiescent”.
